# Source: ChEMBL document CHEMBL1909046, “DrugMatrix in vitro pharmacology data”
# Biological target: Matrix metalloproteinase-9 (Homo sapiens, UniProt P14780);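 note: inhibition of isolated MMP-9 enzyme activity toward a synthetic peptide substrate, from the DrugMatrix protease screening panel; in other assays of this panel Not Active means under 50% inhibition at 10 µM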
# Format: cell-based
# Details: not given
# Sequence of Matrix metalloproteinase-9 (P14780 whole entry): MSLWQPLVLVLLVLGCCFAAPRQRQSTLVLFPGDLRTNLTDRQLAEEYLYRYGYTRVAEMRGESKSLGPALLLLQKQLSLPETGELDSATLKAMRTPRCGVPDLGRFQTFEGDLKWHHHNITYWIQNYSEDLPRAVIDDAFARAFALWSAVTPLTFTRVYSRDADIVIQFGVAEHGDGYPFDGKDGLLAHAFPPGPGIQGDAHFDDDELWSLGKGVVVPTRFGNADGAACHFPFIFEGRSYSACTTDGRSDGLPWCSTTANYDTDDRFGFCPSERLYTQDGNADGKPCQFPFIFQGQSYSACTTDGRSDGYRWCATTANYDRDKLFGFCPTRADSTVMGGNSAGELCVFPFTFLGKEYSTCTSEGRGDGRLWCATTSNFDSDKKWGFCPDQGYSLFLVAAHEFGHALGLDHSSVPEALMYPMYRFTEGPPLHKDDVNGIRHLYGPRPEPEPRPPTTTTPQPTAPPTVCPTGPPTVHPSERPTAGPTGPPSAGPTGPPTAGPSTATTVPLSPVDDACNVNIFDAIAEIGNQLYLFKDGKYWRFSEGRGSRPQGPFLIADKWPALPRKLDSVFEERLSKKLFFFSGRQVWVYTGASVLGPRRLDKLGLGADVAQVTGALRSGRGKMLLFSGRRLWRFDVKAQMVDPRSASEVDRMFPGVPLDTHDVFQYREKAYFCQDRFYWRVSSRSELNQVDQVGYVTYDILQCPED
row,Compound,IC50
1,Cc1cc2c(s1)Nc1ccccc1N=C2N1CCN(C)CC1 [OLANZAPINE],Not Active
2,CC1(C)[C@H](C(=O)O)N2C(=O)C[C@H]2S1(=O)=O [SULBACTAM],Not Active
3,Oc1ccc(/C=C/c2cc(O)cc(O)c2)cc1 [RESVERATROL],Not Active
4,O=C1CC[C@@]2(O)[C@H]3Cc4ccc(O)c5c4[C@@]2(CCN3CC2CC2)[C@H]1O5 [NALTREXONE],Not Active
5,Cc1nnc(NS(=O)(=O)c2ccc(N)cc2)s1 [SULFAMETHIZOLE],Not Active
6,C=CCc1ccc2c(c1)OCO2 [SAFROLE],Not Active
7,CC1=C(/C=C/C(C)=C/C=C/C(C)=C/C(=O)O)C(C)(C)CCC1 [TRETINOIN],Not Active
8,Cc1ccc(S(=O)(=O)NC(=O)NN2CCCCCC2)cc1 [TOLAZAMIDE],Not Active
9,C1CCN2C[C@@H]3C[C@@H](CN4CCCC[C@@H]34)[C@H]2C1 [SPARTEINE],Not Active
10,C#C[C@]1(O)CC[C@H]2[C@@H]3[C@H](C)CC4=C(CCC(=O)C4)[C@H]3CC[C@@]21C [TIBOLONE],Not Active
11,CC[C@H](C)C(=O)O[C@H]1CCC=C2C=C[C@H](C)[C@H](CC[C@@H]3C[C@@H](O)CC(=O)O3)[C@H]21 [MEVASTATIN],Not Active

# Biological target: Mu-type opioid receptor (Homo sapiens, UniProt P35372)
# Experiment: DRUGMATRIX: Opiate mu (OP3, MOP) radioligand binding (ligand: [3H] Diprenorphine)
# Format: cell membranes, CHO-K1, Membrane
# Details: cho-k1; Not Active = under 50% inhibition at 10 µM
# Sequence of Mu-type opioid receptor (P35372 whole entry): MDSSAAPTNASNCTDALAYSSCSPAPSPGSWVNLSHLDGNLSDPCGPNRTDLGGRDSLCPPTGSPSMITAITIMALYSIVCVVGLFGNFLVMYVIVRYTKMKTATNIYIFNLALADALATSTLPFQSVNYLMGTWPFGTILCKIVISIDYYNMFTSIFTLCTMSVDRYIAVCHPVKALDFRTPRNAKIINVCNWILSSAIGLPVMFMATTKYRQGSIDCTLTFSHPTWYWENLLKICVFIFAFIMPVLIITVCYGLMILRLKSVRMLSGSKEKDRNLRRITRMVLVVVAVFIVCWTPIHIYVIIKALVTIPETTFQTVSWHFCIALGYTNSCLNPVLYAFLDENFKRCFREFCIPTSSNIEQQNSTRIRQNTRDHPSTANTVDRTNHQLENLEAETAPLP
row,Compound,IC50
1,Cc1cc2c(s1)Nc1ccccc1N=C2N1CCN(C)CC1 [OLANZAPINE],Not Active
2,CC1(C)[C@H](C(=O)O)N2C(=O)C[C@H]2S1(=O)=O [SULBACTAM],Not Active
3,Cc1nnc(NS(=O)(=O)c2ccc(N)cc2)s1 [SULFAMETHIZOLE],Not Active
4,C=CCc1ccc2c(c1)OCO2 [SAFROLE],Not Active
5,CC1=C(/C=C/C(C)=C/C=C/C(C)=C/C(=O)O)C(C)(C)CCC1 [TRETINOIN],Not Active
6,Cc1ccc(S(=O)(=O)NC(=O)NN2CCCCCC2)cc1 [TOLAZAMIDE],Not Active
7,C#C[C@]1(O)CC[C@H]2[C@@H]3[C@H](C)CC4=C(CCC(=O)C4)[C@H]3CC[C@@]21C [TIBOLONE],Not Active
8,CC[C@H](C)C(=O)O[C@H]1CCC=C2C=C[C@H](C)[C@H](CC[C@@H]3C[C@@H](O)CC(=O)O3)[C@H]21 [MEVASTATIN],Not Active

# Biological target: T1, Adenosine receptor A3 (Homo sapiens, UniProt P0DMS8);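 note: radioligand binding assay with AB-MECA serving as the labeled ligand; in other assays of this panel Not Active means under 50% inhibition at 10 µM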
# T1 sequence (P0DMS8 whole entry): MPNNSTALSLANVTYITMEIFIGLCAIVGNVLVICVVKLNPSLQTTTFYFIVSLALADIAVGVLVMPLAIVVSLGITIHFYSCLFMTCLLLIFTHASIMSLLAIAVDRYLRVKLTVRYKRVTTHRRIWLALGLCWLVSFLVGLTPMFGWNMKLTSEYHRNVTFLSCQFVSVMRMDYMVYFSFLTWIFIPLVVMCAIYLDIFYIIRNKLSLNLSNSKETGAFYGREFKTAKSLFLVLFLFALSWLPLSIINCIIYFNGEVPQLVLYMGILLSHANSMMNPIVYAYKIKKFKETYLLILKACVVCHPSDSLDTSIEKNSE
# Format: cell membranes, CHO-K1, Membrane
# Details: cho-k1
row,Compound,IC50
1,Cc1cc2c(s1)Nc1ccccc1N=C2N1CCN(C)CC1 [OLANZAPINE],Not Active
2,CC1(C)[C@H](C(=O)O)N2C(=O)C[C@H]2S1(=O)=O [SULBACTAM],Not Active
3,Oc1ccc(/C=C/c2cc(O)cc(O)c2)cc1 [RESVERATROL],Not Active
4,O=C1CC[C@@]2(O)[C@H]3Cc4ccc(O)c5c4[C@@]2(CCN3CC2CC2)[C@H]1O5 [NALTREXONE],Not Active
5,Cc1nnc(NS(=O)(=O)c2ccc(N)cc2)s1 [SULFAMETHIZOLE],Not Active
6,C=CCc1ccc2c(c1)OCO2 [SAFROLE],Not Active
7,Cc1ccc(S(=O)(=O)NC(=O)NN2CCCCCC2)cc1 [TOLAZAMIDE],Not Active
8,C1CCN2C[C@@H]3C[C@@H](CN4CCCC[C@@H]34)[C@H]2C1 [SPARTEINE],Not Active
9,C#C[C@]1(O)CC[C@H]2[C@@H]3[C@H](C)CC4=C(CCC(=O)C4)[C@H]3CC[C@@]21C [TIBOLONE],Not Active
10,CC[C@H](C)C(=O)O[C@H]1CCC=C2C=C[C@H](C)[C@H](CC[C@@H]3C[C@@H](O)CC(=O)O3)[C@H]21 [MEVASTATIN],Not Active

# Same assay, conditions: read-out: IC50
row,Compound,IC50
1,CC1=C(/C=C/C(C)=C/C=C/C(C)=C/C(=O)O)C(C)(C)CCC1 [TRETINOIN],5.27 µM

# Same assay, conditions: read-out: Ki
row,Compound,Ki
1,CC1=C(/C=C/C(C)=C/C=C/C(C)=C/C(=O)O)C(C)(C)CCC1 [TRETINOIN],2980 nM

# Biological target: Cytochrome P450 2C19 (Homo sapiens, UniProt P33261); note: in other assays of this panel Not Active means under 50% inhibition at 10 µM
# Details: bti-tn-5b1-4
# Sequence of Cytochrome P450 2C19 (P33261 whole entry): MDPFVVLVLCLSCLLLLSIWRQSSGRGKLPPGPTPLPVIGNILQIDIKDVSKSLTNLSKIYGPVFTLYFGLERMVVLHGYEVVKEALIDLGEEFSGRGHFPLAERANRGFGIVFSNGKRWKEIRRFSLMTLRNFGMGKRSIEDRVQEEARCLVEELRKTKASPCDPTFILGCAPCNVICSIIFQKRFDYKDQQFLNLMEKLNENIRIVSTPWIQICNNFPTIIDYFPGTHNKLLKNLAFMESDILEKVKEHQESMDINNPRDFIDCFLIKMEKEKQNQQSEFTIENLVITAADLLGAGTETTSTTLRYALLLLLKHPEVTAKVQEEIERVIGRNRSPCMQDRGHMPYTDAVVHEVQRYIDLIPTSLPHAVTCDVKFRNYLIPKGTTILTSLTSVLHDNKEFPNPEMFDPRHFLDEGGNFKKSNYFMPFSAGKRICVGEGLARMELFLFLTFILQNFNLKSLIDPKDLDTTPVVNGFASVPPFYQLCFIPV
Compound,IC50,Ki
Cc1cc2c(s1)Nc1ccccc1N=C2N1CCN(C)CC1 [OLANZAPINE],Not Active,Not Active
CC1(C)[C@H](C(=O)O)N2C(=O)C[C@H]2S1(=O)=O [SULBACTAM],Not Active,Not Active
O=C1CC[C@@]2(O)[C@H]3Cc4ccc(O)c5c4[C@@]2(CCN3CC2CC2)[C@H]1O5 [NALTREXONE],Not Active,Not Active
Cc1nnc(NS(=O)(=O)c2ccc(N)cc2)s1 [SULFAMETHIZOLE],Not Active,Not Active
C=CCc1ccc2c(c1)OCO2 [SAFROLE],Not Active,Not Active
CC1=C(/C=C/C(C)=C/C=C/C(C)=C/C(=O)O)C(C)(C)CCC1 [TRETINOIN],Not Active,Not Active
CC[C@H](C)C(=O)O[C@H]1CCC=C2C=C[C@H](C)[C@H](CC[C@@H]3C[C@@H](O)CC(=O)O3)[C@H]21 [MEVASTATIN],Not Active,Not Active

# Biological target: Voltage-gated inwardly rectifying potassium channel KCNH2 (Homo sapiens, UniProt Q12809); note: in other assays of this panel Not Active means under 50% inhibition at 10 µM
# Details: hek293
# Sequence of Voltage-gated inwardly rectifying potassium channel KCNH2 (Q12809 whole entry): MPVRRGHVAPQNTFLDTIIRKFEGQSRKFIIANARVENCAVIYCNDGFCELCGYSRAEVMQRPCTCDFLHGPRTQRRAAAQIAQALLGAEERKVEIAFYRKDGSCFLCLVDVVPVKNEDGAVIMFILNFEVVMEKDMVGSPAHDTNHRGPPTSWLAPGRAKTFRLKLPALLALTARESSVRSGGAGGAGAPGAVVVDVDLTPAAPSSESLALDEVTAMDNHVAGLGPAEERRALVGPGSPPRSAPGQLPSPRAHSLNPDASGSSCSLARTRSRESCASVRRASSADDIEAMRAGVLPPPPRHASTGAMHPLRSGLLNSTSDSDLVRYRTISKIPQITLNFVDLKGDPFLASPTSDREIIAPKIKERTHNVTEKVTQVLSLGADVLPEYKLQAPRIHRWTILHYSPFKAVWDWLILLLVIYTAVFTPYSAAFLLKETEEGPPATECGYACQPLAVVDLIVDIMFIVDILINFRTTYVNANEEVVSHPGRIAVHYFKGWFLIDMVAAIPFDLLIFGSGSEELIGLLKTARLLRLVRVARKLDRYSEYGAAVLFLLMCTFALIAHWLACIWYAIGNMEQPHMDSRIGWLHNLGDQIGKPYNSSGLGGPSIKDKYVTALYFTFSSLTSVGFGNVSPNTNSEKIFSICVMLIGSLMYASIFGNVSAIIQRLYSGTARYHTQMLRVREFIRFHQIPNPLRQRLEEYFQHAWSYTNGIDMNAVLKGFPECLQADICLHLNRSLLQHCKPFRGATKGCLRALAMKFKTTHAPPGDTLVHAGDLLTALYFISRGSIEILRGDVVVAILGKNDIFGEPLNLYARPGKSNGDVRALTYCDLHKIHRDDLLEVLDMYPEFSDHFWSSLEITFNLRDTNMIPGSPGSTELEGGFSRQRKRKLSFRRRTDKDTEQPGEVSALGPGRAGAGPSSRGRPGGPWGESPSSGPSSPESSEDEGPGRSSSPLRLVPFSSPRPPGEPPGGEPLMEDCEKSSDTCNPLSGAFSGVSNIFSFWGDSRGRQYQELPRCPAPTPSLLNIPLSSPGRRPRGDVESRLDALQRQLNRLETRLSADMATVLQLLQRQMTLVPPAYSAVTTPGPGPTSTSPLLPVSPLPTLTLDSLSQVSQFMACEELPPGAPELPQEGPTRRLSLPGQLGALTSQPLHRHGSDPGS
Compound,IC50,Ki
CC1(C)[C@H](C(=O)O)N2C(=O)C[C@H]2S1(=O)=O [SULBACTAM],Not Active,Not Active
Oc1ccc(/C=C/c2cc(O)cc(O)c2)cc1 [RESVERATROL],Not Active,Not Active
O=C1CC[C@@]2(O)[C@H]3Cc4ccc(O)c5c4[C@@]2(CCN3CC2CC2)[C@H]1O5 [NALTREXONE],Not Active,Not Active
Cc1nnc(NS(=O)(=O)c2ccc(N)cc2)s1 [SULFAMETHIZOLE],Not Active,Not Active
C=CCc1ccc2c(c1)OCO2 [SAFROLE],Not Active,Not Active
Cc1ccc(S(=O)(=O)NC(=O)NN2CCCCCC2)cc1 [TOLAZAMIDE],Not Active,Not Active
C1CCN2C[C@@H]3C[C@@H](CN4CCCC[C@@H]34)[C@H]2C1 [SPARTEINE],Not Active,Not Active
C#C[C@]1(O)CC[C@H]2[C@@H]3[C@H](C)CC4=C(CCC(=O)C4)[C@H]3CC[C@@]21C [TIBOLONE],Not Active,Not Active

# Biological target: Protein kinase C alpha type (Homo sapiens, UniProt P17252)
# Format: cell-based
# Details: sf9
row,Compound,IC50
1,Cc1cc2c(s1)Nc1ccccc1N=C2N1CCN(C)CC1 [OLANZAPINE],Not Active
2,CC1(C)[C@H](C(=O)O)N2C(=O)C[C@H]2S1(=O)=O [SULBACTAM],Not Active
3,Oc1ccc(/C=C/c2cc(O)cc(O)c2)cc1 [RESVERATROL],Not Active
4,O=C1CC[C@@]2(O)[C@H]3Cc4ccc(O)c5c4[C@@]2(CCN3CC2CC2)[C@H]1O5 [NALTREXONE],Not Active
5,Cc1nnc(NS(=O)(=O)c2ccc(N)cc2)s1 [SULFAMETHIZOLE],Not Active
6,C=CCc1ccc2c(c1)OCO2 [SAFROLE],Not Active
7,CC1=C(/C=C/C(C)=C/C=C/C(C)=C/C(=O)O)C(C)(C)CCC1 [TRETINOIN],Not Active
8,Cc1ccc(S(=O)(=O)NC(=O)NN2CCCCCC2)cc1 [TOLAZAMIDE],Not Active
9,C1CCN2C[C@@H]3C[C@@H](CN4CCCC[C@@H]34)[C@H]2C1 [SPARTEINE],Not Active
10,C#C[C@]1(O)CC[C@H]2[C@@H]3[C@H](C)CC4=C(CCC(=O)C4)[C@H]3CC[C@@]21C [TIBOLONE],Not Active
11,CC[C@H](C)C(=O)O[C@H]1CCC=C2C=C[C@H](C)[C@H](CC[C@@H]3C[C@@H](O)CC(=O)O3)[C@H]21 [MEVASTATIN],Not Active

# Test system: not listed separately
# Experiment: DRUGMATRIX: Glutamate, NMDA, Phencyclidine radioligand binding (ligand: [3H] TCP)
# Format: cell membranes, Rattus norvegicus, Wistar, Cerebral cortex, Membrane
# Details: Not Active = under 50% inhibition at 10 µM
Compound,IC50,Ki
CC1(C)[C@H](C(=O)O)N2C(=O)C[C@H]2S1(=O)=O [SULBACTAM],Not Active,Not Active
Oc1ccc(/C=C/c2cc(O)cc(O)c2)cc1 [RESVERATROL],Not Active,Not Active
O=C1CC[C@@]2(O)[C@H]3Cc4ccc(O)c5c4[C@@]2(CCN3CC2CC2)[C@H]1O5 [NALTREXONE],Not Active,Not Active
Cc1nnc(NS(=O)(=O)c2ccc(N)cc2)s1 [SULFAMETHIZOLE],Not Active,Not Active
C=CCc1ccc2c(c1)OCO2 [SAFROLE],Not Active,Not Active
CC1=C(/C=C/C(C)=C/C=C/C(C)=C/C(=O)O)C(C)(C)CCC1 [TRETINOIN],Not Active,Not Active
Cc1ccc(S(=O)(=O)NC(=O)NN2CCCCCC2)cc1 [TOLAZAMIDE],Not Active,Not Active
C1CCN2C[C@@H]3C[C@@H](CN4CCCC[C@@H]34)[C@H]2C1 [SPARTEINE],Not Active,Not Active
C#C[C@]1(O)CC[C@H]2[C@@H]3[C@H](C)CC4=C(CCC(=O)C4)[C@H]3CC[C@@]21C [TIBOLONE],Not Active,Not Active
CC[C@H](C)C(=O)O[C@H]1CCC=C2C=C[C@H](C)[C@H](CC[C@@H]3C[C@@H](O)CC(=O)O3)[C@H]21 [MEVASTATIN],Not Active,Not Active

# Biological target: T2, C-X-C chemokine receptor type 1 (Homo sapiens, UniProt P25024); note: in other assays of this panel Not Active means under 50% inhibition at 10 µM
# T2 sequence (P25024 whole entry): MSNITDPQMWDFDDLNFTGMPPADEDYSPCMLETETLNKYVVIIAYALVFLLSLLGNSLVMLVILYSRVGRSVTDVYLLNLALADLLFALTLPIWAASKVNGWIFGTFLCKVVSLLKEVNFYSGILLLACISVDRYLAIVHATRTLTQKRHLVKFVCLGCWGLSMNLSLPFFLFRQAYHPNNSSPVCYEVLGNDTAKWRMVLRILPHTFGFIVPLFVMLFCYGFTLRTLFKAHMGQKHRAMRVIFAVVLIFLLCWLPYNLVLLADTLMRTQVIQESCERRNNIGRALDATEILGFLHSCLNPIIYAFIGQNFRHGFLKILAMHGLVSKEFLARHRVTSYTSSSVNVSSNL
# Details: not given
row,Compound,IC50
1,Cc1cc2c(s1)Nc1ccccc1N=C2N1CCN(C)CC1 [OLANZAPINE],Not Active
2,CC1(C)[C@H](C(=O)O)N2C(=O)C[C@H]2S1(=O)=O [SULBACTAM],Not Active
3,Oc1ccc(/C=C/c2cc(O)cc(O)c2)cc1 [RESVERATROL],Not Active
4,O=C1CC[C@@]2(O)[C@H]3Cc4ccc(O)c5c4[C@@]2(CCN3CC2CC2)[C@H]1O5 [NALTREXONE],Not Active
5,Cc1nnc(NS(=O)(=O)c2ccc(N)cc2)s1 [SULFAMETHIZOLE],Not Active
6,C=CCc1ccc2c(c1)OCO2 [SAFROLE],Not Active
7,CC1=C(/C=C/C(C)=C/C=C/C(C)=C/C(=O)O)C(C)(C)CCC1 [TRETINOIN],Not Active
8,Cc1ccc(S(=O)(=O)NC(=O)NN2CCCCCC2)cc1 [TOLAZAMIDE],Not Active
9,C1CCN2C[C@@H]3C[C@@H](CN4CCCC[C@@H]34)[C@H]2C1 [SPARTEINE],Not Active
10,C#C[C@]1(O)CC[C@H]2[C@@H]3[C@H](C)CC4=C(CCC(=O)C4)[C@H]3CC[C@@]21C [TIBOLONE],Not Active
11,CC[C@H](C)C(=O)O[C@H]1CCC=C2C=C[C@H](C)[C@H](CC[C@@H]3C[C@@H](O)CC(=O)O3)[C@H]21 [MEVASTATIN],Not Active
